{"source": "patent US20200386742A1", "about": "“CELL SYSTEMS USING SPHEROIDS AND METHODS OF MAKING AND USING THE SAME” (priority 2017, published 2020)", "test_system": "embryonic dorsal root ganglion (DRG) explants", "format": "cell-based"}
{"smiles": "NC1=N[C@H](O)[C@H]2[C@H]3O[C@]4(O)O[C@@H]([C@@H](O)[C@@]2(N1)[C@@H]4O)[C@]3(O)CO", "note": "[tetrodotoxin]", "values": [{"measurement": "effect on electrically evoked compound action potentials (CAPs)", "value": "reversibly abolished"}]}
